The results in this text go back to patent US20260070945A1, “MACROCYCLIC IMMUNOMODULATORS” (Bristol-Myers Squibb Company, priority 2022, published 2026).

pIC50: −log10 of the molar value. *1 amine or outer side, *2 acyl side, *3 side chain or, on linkers, in order; H or OH if unused. Where a SMILES comes first, the peptide text is derived from it. Bridges are numbered along the chain shown (N, C = ends). [ ]: non-standard residue; d: D form. The star is where a group is joined. ξ: configuration not given here. Phe(3-CF3) = N[C@@H](Cc1cccc(C(F)(F)F)c1)C(=O)O; Ala(morpholin-4-yl) = N[C@@H](CN1CCOCC1)C(=O)O; Phe(4-COOH) = N[C@@H](Cc1ccc(C(=O)O)cc1)C(=O)O; Bip = N[C@@H](Cc1ccc(-c2ccccc2)cc1)C(=O)O; Phe(3-Me) = Cc1cccc(C[C@H](N)C(=O)O)c1; Phe(4-F) = N[C@@H](Cc1ccc(F)cc1)C(=O)O; γGlu = O=C(O)[C@H](CCC(=O)[*:2])N[*:1]; NH(CH2)12COOH = O=C(O)CCCCCCCCCCCCN*; Val(3-OH) = CC(C)(O)[C@H](N)C(=O)O; 4Pal = N[C@@H](Cc1ccncc1)C(=O)O; Cha = N[C@@H](CC1CCCCC1)C(=O)O; Cit = NC(=O)NCCC[C@H](N)C(=O)O; Ile(3ξ) = CCC(C)[C@H](N)C(=O)O; NMeN = CN[C@@H](CC(N)=O)C(=O)O; Thr(3ξ) = CC(O)[C@H](N)C(=O)O; Chg = N[C@H](C(=O)O)C1CCCCC1; 12Ado = NCCCCCCCCCCCC(=O)O; Carboxymethyl = O=C(O)C*; NMeA = CN[C@@H](C)C(=O)O; Orn = NCCC[C@H](N)C(=O)O; Aun = NCCCCCCCCCCC(=O)O; Dab = NCC[C@H](N)C(=O)O; Dap = NC[C@H](N)C(=O)O; AEEA = NCCOCCOCC(=O)O

In the first experiment the target is T1, PD-1/PD-L1 interaction (PE-labeled human PD-L1-Ig binding to Jurkat cell line over-expressing human PD-1) (Homo sapiens, UniProt Q15116).
T1 construct: expressed in transfected cells; host or cells: Jurkat
T1 sequence (Q15116 25-288): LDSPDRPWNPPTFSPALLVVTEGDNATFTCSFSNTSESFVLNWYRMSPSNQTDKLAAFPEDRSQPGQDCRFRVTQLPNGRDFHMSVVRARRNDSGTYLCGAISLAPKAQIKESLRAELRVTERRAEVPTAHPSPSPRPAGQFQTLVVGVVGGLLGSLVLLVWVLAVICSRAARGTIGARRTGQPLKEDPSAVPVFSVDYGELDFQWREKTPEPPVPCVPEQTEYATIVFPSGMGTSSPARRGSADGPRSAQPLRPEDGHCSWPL
As to the kind of experiment: Jurkat-PD-1 Cell Binding High-Content Screening Assay (CBA). Conditions: Jurkat-hPD-1 cells, PE-labeled PD-L1-Ig 20 nM final; read-out: Jurkat HPD1 PDL1 IC50. In outline:
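Jurkat-hPD-1 cells (8×10^3/well) in DMEM with 10% fetal calf serum were preincubated with compound for 2 h at 37 °C. PE-labeled PD-L1-Ig was then added at 20 nM final for 1 h. Cells were fixed in paraformaldehyde with Hoechst 33342, washed and imaged by high-content imaging.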
The pIC50 is the IC50 on a negative log10 scale, so that one unit is a factor of ten. Take `CCC(C)[C@@H]1NC(=O)[C@H](Cc2ccc(-c3ccccc3)cc2)NC(=O)[C@H](CC(C)C)NC(=O)[C@H](Cc2c[nH]c3ccccc23)NC(=O)[C@H](CC(=O)O)NC(=O)[C@H](Cc2ccc(C(=O)O)cc2)NC(=O)[C@H](Cc2ccc(OCC(=O)O)cc2)NC(=O)CSC[C@@H](C(=O)NCCOCCOCC(=O)N[C@@H](CN)C(=O)NCCCCCCCCCCC(=O)O)NC(=O)[C@H](CO)NC(=O)[C@H](C(C)C)NC(=O)[C@H](CC2CCCCC2)NC(=O)[C@H](CCN)NC(=O)[C@@H](CC(C)C)NC(=O)[C@H](C)N(C)C1=O` (stereo partly drawn) [Example 2074] ({CH2CO}-Y(Carboxymethyl)[Phe(4-COOH)]DWL[Bip][Ile(3ξ)][NMeA][dL][Dab][Cha]VSC[AEEA][Dap][Aun]-OH; thioether N-14): the pIC50 is 8.00.
Same read-out and setting: with `Cc1cccc(C[C@@H]2NC(=O)[C@H](CC(=O)O)NC(=O)[C@H](Cc3ccc(OCC(=O)O)cc3)NC(=O)[C@H](C(C)O)NC(=O)CSC[C@@H](C(=O)N(C)[C@@H](CC(N)=O)C(=O)NCCCCCCCCCCC(=O)O)NC(=O)[C@H](CO)NC(=O)[C@H](C(C)C)NC(=O)[C@H](CC3CCCCC3)NC(=O)[C@H](CCN)NC(=O)[C@@H](CC(C)C)NC(=O)[C@H](C)N(C)C(=O)[C@H](C(C)C)NC(=O)[C@H](Cc3ccc(-c4ccccc4)cc3)NC(=O)[C@H](C(C)C)NC2=O)c1` (stereo partly drawn) [Example 2302] ({CH2CO}-[Thr(3ξ)]Y(Carboxymethyl)D[Phe(3-Me)]V[Bip]V[NMeA][dL][Dab][Cha]VSC[NMeN][Aun]-OH; thioether N-14) the figure was 7.55; with `CC(=O)NCCCC[C@@H]1NC(=O)[C@H](C(C)(C)O)NC(=O)[C@H](CC2CCCCC2)NC(=O)[C@H](CCN)NC(=O)[C@@H](CC(C)C)NC(=O)[C@H](C)N(C)C(=O)[C@H](CCCNC(N)=O)NC(=O)[C@H](Cc2ccc(-c3ccccc3)cc2)NC(=O)[C@H](Cc2ccc(C(=O)O)cc2)NC(=O)[C@H](Cc2cccc(C(F)(F)F)c2)NC(=O)[C@H](CC(=O)O)NC(=O)[C@H](Cc2ccc(OCC(=O)O)cc2)NC(=O)[C@H](CN2CCOCC2)NC(=O)CSC[C@@H](C(=O)N[C@@H](CCN)C(=O)NCCCCCCCCCCCCC(=O)O)NC1=O` [Example 1157] ({CH2CO}-[Ala(morpholin-4-yl)]Y(Carboxymethyl)D[Phe(3-CF3)][Phe(4-COOH)][Bip][Cit][NMeA][dL][Dab][Cha][Val(3-OH)]K(Ac)C[Dab]-{NH(CH2)12COOH}; thioether N-14), 8.34.
As for `CC(C)C[C@H]1NC(=O)[C@H](C)N(C)C(=O)[C@H](C(C)C)NC(=O)[C@H](Cc2ccc(-c3ccccc3)cc2)NC(=O)[C@H](C2CCCCC2)NC(=O)[C@H](Cc2c[nH]c3ccccc23)NC(=O)[C@H](CC(=O)O)NC(=O)[C@H](Cc2ccc(OCC(=O)O)cc2)NC(=O)[C@H](Cc2ccncc2)NC(=O)CSC[C@@H](C(=O)N[C@@H](CCCCN)C(=O)NCCOCCOCC(=O)NCCCCCCCCCCC(=O)O)NC(=O)[C@H](CO)NC(=O)[C@H](C(C)C)NC(=O)[C@H](CC2CCCCC2)NC(=O)[C@H](CC(=O)O)NC1=O` [Example 2090] ({CH2CO}-[4Pal]Y(Carboxymethyl)DW[Chg][Bip]V[NMeA][dL]D[Cha]VSCK[AEEA][Aun]-OH; thioether N-14), the pIC50 was 7.32.
Take `CC(C)C[C@H]1NC(=O)[C@H](C)N(C)C(=O)[C@H](Cc2ccc(C(=O)O)cc2)NC(=O)[C@H](Cc2ccc(-c3ccccc3)cc2)NC(=O)[C@H](Cc2ccc(C(=O)O)cc2)NC(=O)[C@H](Cc2cccc(C(F)(F)F)c2)NC(=O)[C@H](CC(=O)O)NC(=O)[C@H](Cc2ccc(OCC(=O)O)cc2)NC(=O)[C@H](Cc2ccc(C(=O)O)cc2)NC(=O)CSC[C@@H](C(=O)N[C@@H](CCN)C(=O)NCCOCCOCC(=O)N[C@@H](CCC(=O)NCCOCCOCC(=O)NCCCCCCCCCCCCC(=O)O)C(=O)O)NC(=O)[C@H](CCC(=O)O)NC(=O)[C@H](C(C)C)NC(=O)[C@H](CC2CCCCC2)NC(=O)[C@H](CCN)NC1=O` [Example 1160] ({CH2CO}-[Phe(4-COOH)]Y(Carboxymethyl)D[Phe(3-CF3)][Phe(4-COOH)][Bip][Phe(4-COOH)][NMeA][dL][Dab][Cha]VEC[Dab][AEEA][γGlu][AEEA]-{NH(CH2)12COOH}; thioether N-14): the pIC50 was 7.00.
With `CCC(C)[C@@H]1NC(=O)[C@H](Cc2ccc(-c3ccccc3)cc2)NC(=O)[C@H](C(C)C)NC(=O)[C@H](Cc2c[nH]c3ccccc23)NC(=O)[C@H](CC(=O)O)NC(=O)[C@H](Cc2ccc(OCC(=O)O)cc2)NC(=O)[C@H](CN)NC(=O)CSC[C@@H](C(=O)N[C@@H](CCCN)C(=O)N[C@@H](CO)C(=O)NCCCCCCCCCCCC(=O)O)NC(=O)[C@H](C(C)O)NC(=O)[C@H](C(C)C)NC(=O)[C@H](CC2CCCCC2)NC(=O)[C@H](CCN)NC(=O)[C@@H](CC(C)C)NC(=O)[C@H](C)N(C)C1=O` (stereo partly drawn) [Example 2409] ({CH2CO}-[Dap]Y(Carboxymethyl)DWV[Bip][Ile(3ξ)][NMeA][dL][Dab][Cha]V[Thr(3ξ)]C[Orn]S[12Ado]-OH; thioether N-14), the negative-log IC50 (pIC50) is 6.96.
Still for that read-out and setting: as for `CC(C)C[C@@H]1NC(=O)[C@H](Cc2c[nH]c3ccccc23)NC(=O)[C@H](CC(=O)O)NC(=O)[C@H](Cc2ccncc2)NC(=O)[C@H](Cc2ccc(OCC(=O)O)cc2)NC(=O)CSC[C@@H](C(=O)N[C@@H](CN)C(=O)NCCOCCOCC(=O)NCCCCCCCCCCC(=O)O)NC(=O)[C@H](CO)NC(=O)[C@H](C(C)C)NC(=O)[C@H](CC2CCCCC2)NC(=O)[C@H](CCN)NC(=O)[C@@H](CC(C)C)NC(=O)[C@H](C)N(C)C(=O)[C@H](C(C)C)NC(=O)[C@H](Cc2ccc(-c3ccccc3)cc2)NC1=O` [Example 1088] ({CH2CO}-Y(Carboxymethyl)[4Pal]DWL[Bip]V[NMeA][dL][Dab][Cha]VSC[Dap][AEEA][Aun]-OH; thioether N-14), the figure is 8.15; as for `CCC(C)[C@@H]1NC(=O)[C@H](Cc2ccc(-c3ccccc3)cc2)NC(=O)[C@H](C(C)C)NC(=O)[C@H](Cc2c[nH]c3ccccc23)NC(=O)[C@H](CC(=O)O)NC(=O)[C@H](Cc2ccc(OCC(=O)O)cc2)NC(=O)[C@H](C(C)O)NC(=O)CSC[C@@H](C(=O)N[C@@H](CCCN)C(=O)N[C@@H](CCC(=O)NCCCCCCCCCCCC(=O)O)C(=O)O)NC(=O)[C@H](C(C)O)NC(=O)[C@H](C(C)C)NC(=O)[C@H](CC2CCCCC2)NC(=O)[C@H](CCN)NC(=O)[C@@H](CC(C)C)NC(=O)[C@H](C)N(C)C1=O` (stereo partly drawn) [Example 2418] ({CH2CO}-[Thr(3ξ)]Y(Carboxymethyl)DWV[Bip][Ile(3ξ)][NMeA][dL][Dab][Cha]V[Thr(3ξ)]C[Orn][γGlu][12Ado]-OH; thioether N-14), 7.33; as for `Cc1cccc(C[C@@H]2NC(=O)[C@H](CC(=O)O)NC(=O)[C@H](Cc3ccc(OCC(=O)O)cc3)NC(=O)[C@H](C(C)O)NC(=O)CSC[C@@H](C(=O)NCCOCCOCC(=O)NCCCCCCCCCCC(=O)O)NC(=O)[C@H](C(C)O)NC(=O)[C@H](C(C)C)NC(=O)[C@H](CC3CCCCC3)NC(=O)[C@H](CCN)NC(=O)[C@@H](CC(C)C)NC(=O)[C@H](C)N(C)C(=O)[C@H](CCCNC(N)=O)NC(=O)[C@H](Cc3ccc(-c4ccccc4)cc3)NC(=O)[C@H](C(C)C)NC2=O)c1` (stereo partly drawn) [Example 2320] ({CH2CO}-[Thr(3ξ)]Y(Carboxymethyl)D[Phe(3-Me)]V[Bip][Cit][NMeA][dL][Dab][Cha]V[Thr(3ξ)]C[AEEA][Aun]-OH; thioether N-14), 8.15.

Still in this experiment, the particulars now being: PE-labeled PD-L1-Ig 20 nM final, Jurkat-hPD-1 cells; read-out: Jurkat HPD1 PDL1 IC50.
On to `CCC(C)[C@@H]1NC(=O)[C@H](Cc2ccc(-c3ccccc3)cc2)NC(=O)[C@H](CC(C)C)NC(=O)[C@H](Cc2c[nH]c3ccccc23)NC(=O)[C@H](CC(=O)O)NC(=O)[C@H](Cc2ccc(OCC(=O)O)cc2)NC(=O)[C@H](C(C)O)NC(=O)CSC[C@@H](C(=O)N[C@@H](CCN)C(=O)NCCOCCOCC(=O)NCCCCCCCCCCC(=O)O)NC(=O)[C@H](CCC(=O)O)NC(=O)[C@H](C(C)(C)O)NC(=O)[C@H](CC2CCCCC2)NC(=O)[C@H](CCN)NC(=O)[C@@H](CC(C)C)NC(=O)[C@H](C)N(C)C1=O` (stereo partly drawn) [Example 2509] ({CH2CO}-[Thr(3ξ)]Y(Carboxymethyl)DWL[Bip][Ile(3ξ)][NMeA][dL][Dab][Cha][Val(3-OH)]EC[Dab][AEEA][Aun]-OH; thioether N-14), for which the pIC50 is 7.89.
On to `CC(=O)NCCCC[C@@H]1NC(=O)[C@H](C(C)(C)O)NC(=O)[C@H](CC2CCCCC2)NC(=O)[C@H](CCN)NC(=O)[C@@H](CC(C)C)NC(=O)[C@H](C)N(C)C(=O)[C@H](CCC(N)=O)NC(=O)[C@H](Cc2ccc(-c3ccccc3)cc2)NC(=O)[C@H](Cc2ccc(C(=O)O)cc2)NC(=O)[C@H](Cc2cccc(C(F)(F)F)c2)NC(=O)[C@H](CC(=O)O)NC(=O)[C@H](Cc2ccc(OCC(=O)O)cc2)NC(=O)[C@H](Cc2ccc(OCC(=O)O)cc2)NC(=O)CSC[C@@H](C(=O)N[C@@H](CCN)C(=O)NCCOCCOCC(=O)NCCCCCCCCCCC(=O)O)NC1=O` [Example 2579] ({CH2CO}-Y(Carboxymethyl)Y(Carboxymethyl)D[Phe(3-CF3)][Phe(4-COOH)][Bip]Q[NMeA][dL][Dab][Cha][Val(3-OH)]K(Ac)C[Dab][AEEA][Aun]-OH; thioether N-14), for which the pIC50 was 8.59.
Same read-out and setting: as for `Cc1cccc(C[C@@H]2NC(=O)[C@H](CC(=O)O)NC(=O)[C@H](Cc3ccc(C(=O)O)cc3)NC(=O)[C@H](Cc3ccc(F)cc3)NC(=O)CSC[C@@H](C(=O)N[C@@H](CCN)C(=O)NCCOCCOCC(=O)NCCCCCCCCCCC(=O)O)NC(=O)[C@H](CCC(=O)O)NC(=O)[C@H](C(C)C)NC(=O)[C@H](CC3CCCCC3)NC(=O)[C@H](CCN)NC(=O)[C@@H](CC(C)C)NC(=O)[C@H](C)N(C)C(=O)[C@H](Cc3ccc(C(=O)O)cc3)NC(=O)[C@H](Cc3ccc(-c4ccccc4)cc3)NC(=O)[C@H](Cc3ccc(C(=O)O)cc3)NC2=O)c1` [Example 2548] ({CH2CO}-[Phe(4-F)][Phe(4-COOH)]D[Phe(3-Me)][Phe(4-COOH)][Bip][Phe(4-COOH)][NMeA][dL][Dab][Cha]VEC[Dab][AEEA][Aun]-OH; thioether N-14), the figure is 7.71.
